Source: ChEMBL document CHEMBL1165855, “Guaiane sesquiterpenes from seaweed Ulva fasciata Delile and their antibacterial properties” (2010)
Converted amounts (≈) assume the structure as drawn.

Legend:
Format in all cases: functional
Vibrio vulnificus [1] = experiment: Antibacterial activity against Vibrio vulnificus MTCC 1145 after 24 hrs by broth microdilution assay; settings: MTCC 1145, 24 h
Vibrio vulnificus [2] = experiment: Antibacterial activity against Vibrio vulnificus MTCC 1145 at 150 ug/ml after 24 hrs by disc-diffusion assay; settings: MTCC 1145, 24 h, read-out: DIZ
Vibrio harveyi [3] = experiment: Antibacterial activity against Vibrio harveyi MTCC 3438 at 150 ug/ml after 24 hrs by disc-diffusion assay; settings: MTCC 3438, 24 h, read-out: DIZ
Vibrio vulnificus [4] = experiment: Antibacterial activity against Vibrio vulnificus MTCC 1145 at 100 ug/ml after 24 hrs by disc-diffusion assay; settings: MTCC 1145, 24 h, read-out: DIZ
Vibrio parahaemolyticus [5] = experiment: Antibacterial activity against Vibrio parahaemolyticus ATCC 17809 at 150 ug/ml after 24 hrs by disc-diffusion assay; settings: ATCC 17809, 24 h, read-out: DIZ
Vibrio vulnificus [6] = experiment: Antibacterial activity against Vibrio vulnificus MTCC 1145 at 50 ug/ml after 24 hrs by disc-diffusion assay; settings: MTCC 1145, 24 h, read-out: DIZ
Vibrio harveyi [7] = experiment: Antibacterial activity against Vibrio harveyi MTCC 3438 at 100 ug/ml after 24 hrs by disc-diffusion assay; settings: MTCC 3438, 24 h, read-out: DIZ
Vibrio parahaemolyticus [8] = experiment: Antibacterial activity against Vibrio parahaemolyticus ATCC 17809 at 100 ug/ml after 24 hrs by disc-diffusion assay; settings: ATCC 17809, 24 h, read-out: DIZ
Vibrio parahaemolyticus [9] = experiment: Antibacterial activity against Vibrio parahaemolyticus ATCC 17809 at 50 ug/ml after 24 hrs by disc-diffusion assay; settings: ATCC 17809, 24 h, read-out: DIZ
Vibrio harveyi [10] = experiment: Antibacterial activity against Vibrio harveyi MTCC 3438 after 24 hrs by broth microdilution assay; settings: MTCC 3438, 24 h
Vibrio harveyi [11] = experiment: Antibacterial activity against Vibrio harveyi MTCC 3438 at 50 ug/ml after 24 hrs by disc-diffusion assay; settings: MTCC 3438, 24 h, read-out: DIZ
Vibrio parahaemolyticus [12] = experiment: Antibacterial activity against Vibrio parahaemolyticus ATCC 17809 after 24 hrs by broth microdilution assay; settings: ATCC 17809, 24 h

| Structure (SMILES) | MIC (Vibrio vulnificus [1]) | zone of inhibition at 150 µg/mL (Vibrio vulnificus [2]) | zone of inhibition at 150 µg/mL (Vibrio harveyi [3]) | zone of inhibition at 100 µg/mL (Vibrio vulnificus [4]) | zone of inhibition at 150 µg/mL (Vibrio parahaemolyticus [5]) | zone of inhibition at 50 µg/mL (Vibrio vulnificus [6]) | zone of inhibition at 100 µg/mL (Vibrio harveyi [7]) | zone of inhibition at 100 µg/mL (Vibrio parahaemolyticus [8]) | zone of inhibition at 50 µg/mL (Vibrio parahaemolyticus [9]) | MIC (Vibrio harveyi [10]) | zone of inhibition at 50 µg/mL (Vibrio harveyi [11]) | MIC (Vibrio parahaemolyticus [12]) |
| --- | --- | --- | --- | --- | --- | --- | --- | --- | --- | --- | --- | --- |
| CC[C@H]1CCC[C@@](C)(CO)[C@H]2C=C[C@H](C)[C@@H]12 | 40 µg/mL (≈ 180 µM) | 12.4 mm | 12.9 mm | 12 mm | 13.2 mm | 11.7 mm | 11.7 mm | 12.9 mm | 12.7 mm | 50 µg/mL (≈ 225 µM) | 10.6 mm | 35 µg/mL (≈ 157 µM) |
| CC[C@H]1CCC[C@@](C)(COC(C)=O)[C@H]2C=C[C@H](C)[C@@H]12 | 25 µg/mL (≈ 94.6 µM) | 15.1 mm | 12.6 mm | 14.9 mm | 16.6 mm | 14.1 mm | 12.3 mm | 15.8 mm | 15.3 mm | 30 µg/mL (≈ 113 µM) | 11.7 mm | 25 µg/mL (≈ 94.6 µM) |
| CC(C)[C@H]1CCC[C@@](C)(O)[C@H]2C=C[C@H](C)[C@@H]12 | 125 µg/mL (≈ 562 µM) | 7.85 mm | 6.6 mm | 7.3 mm | 7.28 mm | 7.15 mm | 6.58 mm | 6.92 mm | 6.83 mm | 160 µg/mL (≈ 720 µM) | 6.54 mm | 110 µg/mL (≈ 495 µM) |
